Reference: US12521375B2, “Pharmaceutical composition for treating fatty liver disease” (Shionogi & Co., Ltd., priority 2020, dated 2026)
pIC50: −log10 of the molar value. Values joined by “and” are separate entries in the source; they are usually repeats but may differ in a detail not shown here. Identical values can stand only once.

Assays:
Tissue distribution test = type: in vivo, Crl:CD (SD) rats; conditions: rats, intravenous 0.5 mg/kg, 30 minutes after administration
Method: To 8-week-old male Crl:CD (SD) rats, the compound of the present invention was intravenously administered at a dose of 0.5 mg/mL/kg under non-fasted conditions, and 30 minutes after administration, the rats were killed by exsanguination through whole blood collection from the abdominal aorta under anesthesia. Then, the liver and muscles were removed, and a 25% homogenate was prepared with distilled water. The obtained blood was centrifuged, and plasma was then obtained. Then, control plasma and control tissue homogenate were added to the tissue homogenate sample and the plasma sample, respectively, at 1:1, and each sample was measured using LC/MS/MS. The measured area ratio (tissue/plasma) obtained was used as a tissue Kp value. For compound I-12, the value was 6.10 in the liver and 1.29 in muscles, and for compound I-13, the value was 4.06 in the liver and 0.918 in muscles. Therefore, the compound of the present invention has a property of being distributed in the liver and muscles in vivo.

[1] = tested on: Malonyl-CoA concentration in organ; test: Test for evaluating malonyl-CoA concentration in liver and muscles; type: in vivo, BKS.Cg-+Lepr^db/+Lepr^db/Jcl mice; conditions: for Malonyl-CoA concentration in organ with vehicle administration group defined as 100%, Liver / Malonyl-CoA concentration in organ with vehicle administration group defined as 100%, Muscle: 2 hours after administration
Method: Eight-week-old male BKS.Cg-+Lepr^db/+Lepr^db/Jcl mice were fasted for 4 hours, then the compound of the present invention was orally administered at a dose of 0.3 to 6 mg/5 mL/kg, and 2 hours after administration, the mice were killed by exsanguination through whole blood collection from the abdominal vena cava under anesthesia. Then, the liver and muscles were removed, and a 9% homogenate was prepared in a homogenizing buffer (distilled water: 60% perchloric acid: 85% phosphoric acid=43:5:2). The malonyl-CoA concentration in the tissue was quantified by LC/MS/MS.

Crl:CD (SD) rats = test: Influence on platelet count; type: in vivo; conditions: for Platelet count: oral, 4 days, SD rats
Method: The compound of the present invention was suspended in a 0.5% methylcellulose solution so as to have a dose of 50 to 600 mg/kg/day, and was orally repeatedly administered for 4 days to 6-week-old male Crl:CD (SD) rats under non-fasted conditions. On day 5 from the start of administration, blood was collected from the abdominal vena cava under anesthesia, and […]. A platelet count in plasma was evaluated with an automatic hemocytometer.

recombinant human ACC2 = recombinant human ACC2 (Homo sapiens (Human), UniProt O00763); test: Measurement of inhibitory activity of human ACC2; type: biochemical; conditions: read-out: IC50 hACC2
Sequence of recombinant human ACC2 (O00763 27-2458): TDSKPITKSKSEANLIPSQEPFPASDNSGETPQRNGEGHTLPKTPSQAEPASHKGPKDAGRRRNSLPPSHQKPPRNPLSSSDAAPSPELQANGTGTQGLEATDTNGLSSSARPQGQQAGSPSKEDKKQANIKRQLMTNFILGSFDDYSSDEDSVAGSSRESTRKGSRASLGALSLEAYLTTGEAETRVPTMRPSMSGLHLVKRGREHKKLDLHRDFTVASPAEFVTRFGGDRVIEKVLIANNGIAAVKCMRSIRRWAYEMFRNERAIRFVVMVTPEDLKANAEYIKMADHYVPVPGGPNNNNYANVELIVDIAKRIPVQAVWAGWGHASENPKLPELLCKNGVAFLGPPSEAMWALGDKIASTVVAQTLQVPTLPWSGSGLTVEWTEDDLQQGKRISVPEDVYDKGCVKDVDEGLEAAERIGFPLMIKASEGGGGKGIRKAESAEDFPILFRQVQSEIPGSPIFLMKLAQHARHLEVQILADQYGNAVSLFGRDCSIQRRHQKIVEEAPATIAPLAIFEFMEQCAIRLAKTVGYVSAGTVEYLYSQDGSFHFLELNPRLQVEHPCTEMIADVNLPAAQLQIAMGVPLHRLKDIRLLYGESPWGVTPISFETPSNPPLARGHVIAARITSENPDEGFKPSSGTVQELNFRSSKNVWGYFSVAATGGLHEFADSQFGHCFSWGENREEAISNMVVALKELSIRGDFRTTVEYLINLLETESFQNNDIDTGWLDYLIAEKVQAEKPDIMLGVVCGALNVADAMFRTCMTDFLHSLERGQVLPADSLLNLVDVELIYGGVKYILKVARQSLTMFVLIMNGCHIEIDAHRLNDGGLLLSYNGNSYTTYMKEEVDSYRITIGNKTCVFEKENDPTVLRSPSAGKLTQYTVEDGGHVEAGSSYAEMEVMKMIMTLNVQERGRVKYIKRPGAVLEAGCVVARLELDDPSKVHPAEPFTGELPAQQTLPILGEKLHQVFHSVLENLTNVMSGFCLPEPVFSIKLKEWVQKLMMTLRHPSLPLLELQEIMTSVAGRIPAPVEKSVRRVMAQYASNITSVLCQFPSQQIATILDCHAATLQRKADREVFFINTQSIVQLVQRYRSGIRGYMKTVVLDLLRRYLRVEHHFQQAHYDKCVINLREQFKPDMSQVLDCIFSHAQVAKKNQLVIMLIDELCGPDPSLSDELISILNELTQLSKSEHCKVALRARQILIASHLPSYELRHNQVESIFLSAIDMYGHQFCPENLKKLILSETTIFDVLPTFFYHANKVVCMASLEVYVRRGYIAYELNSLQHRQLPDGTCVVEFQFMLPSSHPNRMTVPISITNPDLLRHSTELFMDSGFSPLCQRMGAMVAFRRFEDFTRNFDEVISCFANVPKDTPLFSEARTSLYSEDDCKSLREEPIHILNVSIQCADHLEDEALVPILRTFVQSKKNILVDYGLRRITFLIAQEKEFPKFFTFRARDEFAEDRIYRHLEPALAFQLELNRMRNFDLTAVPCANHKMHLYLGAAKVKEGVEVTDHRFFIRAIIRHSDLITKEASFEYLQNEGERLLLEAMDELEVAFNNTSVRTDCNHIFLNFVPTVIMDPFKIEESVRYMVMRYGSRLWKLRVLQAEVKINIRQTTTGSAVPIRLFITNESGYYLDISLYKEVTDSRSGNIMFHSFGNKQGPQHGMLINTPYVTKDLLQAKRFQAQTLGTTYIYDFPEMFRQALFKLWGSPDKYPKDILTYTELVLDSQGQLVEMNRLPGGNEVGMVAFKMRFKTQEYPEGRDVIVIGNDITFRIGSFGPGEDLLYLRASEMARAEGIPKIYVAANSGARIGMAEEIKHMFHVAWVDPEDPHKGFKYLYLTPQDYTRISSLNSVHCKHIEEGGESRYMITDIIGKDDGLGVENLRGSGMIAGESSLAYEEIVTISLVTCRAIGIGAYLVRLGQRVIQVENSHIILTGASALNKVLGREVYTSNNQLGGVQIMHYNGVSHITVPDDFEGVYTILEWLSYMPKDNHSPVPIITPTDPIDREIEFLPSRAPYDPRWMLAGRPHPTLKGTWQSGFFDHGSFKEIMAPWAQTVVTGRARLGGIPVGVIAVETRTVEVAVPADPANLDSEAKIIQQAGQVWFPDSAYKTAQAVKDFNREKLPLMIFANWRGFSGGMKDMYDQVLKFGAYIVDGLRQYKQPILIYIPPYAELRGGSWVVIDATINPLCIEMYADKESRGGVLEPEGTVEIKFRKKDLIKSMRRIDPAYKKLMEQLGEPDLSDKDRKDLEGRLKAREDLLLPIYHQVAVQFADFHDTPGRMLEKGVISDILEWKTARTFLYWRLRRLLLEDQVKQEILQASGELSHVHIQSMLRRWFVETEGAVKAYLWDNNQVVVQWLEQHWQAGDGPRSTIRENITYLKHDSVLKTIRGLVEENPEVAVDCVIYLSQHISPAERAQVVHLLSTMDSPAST
From the text: A cDNA encoding human ACC2 protein (27 amino acid residues to 2458 amino acid residues from the N-terminus) was cloned from a human kidney cDNA library (Clontech Laboratories, Inc.), a His-tag sequence was introduced at the 5′ end, and then inserted into pFastBac1 (Invitrogen). A recombinant baculovirus was produced in accordance with the protocol for a Bac-to-Bac baculovirus expression system (Invitrogen), and Sf-9 cells were infected therewith to express human ACC2 protein. The recovered cells were crushed, filtered through a filter, and then subjected to Ni affinity chromatography and anion exchange chromatography. Fractions containing human ACC2 protein were collected to obtain recombinant human ACC2.
The recombinant human ACC1 and the recombinant human ACC2 obtained from the above Preparation Examples were preincubated in an assay buffer (50 mM HEPES-KOH (pH 7.4), 10 mM magnesium chloride, 6 to 10 mM potassium citrate, 4 mM reduced glutathione, and 1.5 mg/ml bovine serum albumin) for 1 hour. […] After incubation, the enzymatic reaction was stopped by addition of EDTA, and then the compound was co-crystallized with an α-cyano-4-hydroxy cinnamic acid (CHCA) matrix on a MALDI target plate, and measurement was performed in a reflector negative mode using a matrix-assisted laser desorption ionization-time-of-flight mass spectrometer (MALDI-TOF MS). Deprotonated ions of the substrate acetyl-CoA (AcCoA) and the reaction product malonyl-CoA (MalCoA) were detected, and the intensity of each signal was used to calculate a conversion rate to malonyl-CoA […], i.e., intensity of [MalCoA-H]-/(intensity of [MalCoA-H]-+intensity of [AcCoA-H]-). […] The potassium citrate concentration in the assay buffer, the potassium bicarbonate concentration in the substrate solution, and the incubation time were adjusted within the above concentrations or reaction times for each lot of the enzyme to be used.

[2] = tested on: high-fat diet-loaded mice with spontaneous fatty liver; test: Effect on liver fibrosis progression in high-fat diet-loaded mice with spontaneous fatty liver; type: in vivo, FLS.B6-Lep<ob>/Shi mice; set-up: 3-hydroxybutyric acid in plasma: unit not given here; conditions: for Amount of triglyceride in liver / Sirius red-positive area rate / 3-hydroxybutyric acid in plasma / Plasma triglyceride concentration / Change in hemoglobin A1c (day 26 of administration) − (before start of administration) / Hemoglobin A1c, Before start of administration / Hemoglobin A1c, Day 26 of administration: bid; for Amount of triglyceride in liver / Sirius red-positive area rate: oral, 4 weeks; for Change in hemoglobin A1c (day 26 of administration) − (before start of administration) / Hemoglobin A1c, Before start of administration / Hemoglobin A1c, Day 26 of administration: individual animals
Method: Eight-week-old male FLS.B6-Lep/Shi mice were fed a high-fat diet (60 kcal % fat content, using shortening, containing 2% cholesterol and 8.7% fructose), and at the same time, the compound of the present invention was suspended in a 0.5% MC aqueous solution so as to have a dose of 5.5 to 60 mg/kg/5 mL, and orally repeatedly administered (b.i.d.) for 4 weeks. Blood was collected from the tail vein during the repeated administration period, and biochemical parameters in plasma were measured. After 4 weeks of administration, blood was collected from the abdominal vena cava under anesthesia, and then the liver was collected. Paraffin-embedded sections prepared from the collected liver were subjected to Sirius red staining. A degree of fibrosis progression in the liver was determined from a Sirius red-positive area rate and evaluated.

## CC(=O)N[C@@H](C)CC[C@H]1OC[C@H](Oc2nc3c(F)cc(OC4CC4)cc3n2C)CO1 [Compound I-13]
Tissue distribution test; liver
  tissue Kp value (tissue/plasma), liver: 4.06
Tissue distribution test; muscles
  tissue Kp value (tissue/plasma), muscles: 0.918
[1]; 0.3 mg/kg oral
  Malonyl-CoA concentration in organ with vehicle administration group defined as 100%, Liver: 90.9%
  Malonyl-CoA concentration in organ with vehicle administration group defined as 100%, Muscle: 72.8%
[1]; 1 mg/kg oral
  Malonyl-CoA concentration in organ with vehicle administration group defined as 100%, Liver: 86.5%
  Malonyl-CoA concentration in organ with vehicle administration group defined as 100%, Muscle: 64.9%
[1]; 3 mg/kg oral
  Malonyl-CoA concentration in organ with vehicle administration group defined as 100%, Liver: 79.9%
  Malonyl-CoA concentration in organ with vehicle administration group defined as 100%, Muscle: 58.4%
[1]; 0.3 to 6 mg/kg oral
  malonyl-CoA concentrations in the liver and muscles (in words): reduced malonyl-CoA concentrations in the liver and muscles in a compound dose-dependent manner
Crl:CD (SD) rats; 50 mg/kg/day
  Platelet count: 1079 ± 73
Crl:CD (SD) rats; 100 mg/kg/day
  Platelet count: 1048 ± 65
Crl:CD (SD) rats; 200 mg/kg/day
  Platelet count: 1122 ± 87
Crl:CD (SD) rats; within a dose range used for evaluation (50 to 600 mg/kg/day)
  platelet count in SD rats (in words): did not affect the platelet count
Recombinant human ACC2
  pIC50: 8.18
[2]; 30 mg/kg
  Amount of triglyceride in liver: 234 ± 21 mg/g tissue
  Sirius red-positive area rate: 3.05 ± 0.28 %
  Change in hemoglobin A1c (day 26 of administration) − (before start of administration): 1.10% and 2.61% and 0.359% and 0.580% and 0.200% and 1.37% and 0.484% and 1.14% and 1.05%
  Hemoglobin A1c, Before start of administration: 6.40% and 6.59% and 6.70% and 6.32% and 7.03% and 7.49% and 7.05% and 6.78% and 6.28%
  Hemoglobin A1c, Day 26 of administration: 7.50% and 9.21% and 7.05% and 6.90% and 7.23% and 8.86% and 7.54% and 7.91% and 7.32%
[2]; 30 mg/kg, Week 0
  3-hydroxybutyric acid in plasma: 252 ± 73
  Plasma triglyceride concentration: 680 ± 81 mg/dL
[2]; 30 mg/kg, Week 1
  3-hydroxybutyric acid in plasma: 397 ± 140
  Plasma triglyceride concentration: 299 ± 27 mg/dL
[2]; 30 mg/kg, Week 4
  3-hydroxybutyric acid in plasma: 1888 ± 570
  Plasma triglyceride concentration: 600 ± 59 mg/dL
[2]; 45 mg/kg
  Amount of triglyceride in liver: 211 ± 19 mg/g tissue
  Sirius red-positive area rate: 2.65 ± 0.34 %
  Change in hemoglobin A1c (day 26 of administration) − (before start of administration): 0.591% and 0.429% and −0.888% and −0.504% and 2.17% and 0.162% and 0.562% and 1.50% and 0.667%
  Hemoglobin A1c, Before start of administration: 6.58% and 6.74% and 7.06% and 5.77% and 5.87% and 7.03% and 6.43% and 6.83% and 7.47%
  Hemoglobin A1c, Day 26 of administration: 7.17% (2×) and 6.17% and 5.26% and 8.04% and 7.19% and 6.99% and 8.33% and 8.13%
[2]; 45 mg/kg, Week 0
  3-hydroxybutyric acid in plasma: 291 ± 130
  Plasma triglyceride concentration: 644 ± 89 mg/dL
[2]; 45 mg/kg, Week 1
  3-hydroxybutyric acid in plasma: 829 ± 490
  Plasma triglyceride concentration: 279 ± 40 mg/dL
[2]; 45 mg/kg, Week 4
  3-hydroxybutyric acid in plasma: 1803 ± 640
  Plasma triglyceride concentration: 572 ± 54 mg/dL
[2]; 60 mg/kg
  Amount of triglyceride in liver: 235 ± 20 mg/g tissue
  Sirius red-positive area rate: 2.75 ± 0.36 %
  Change in hemoglobin A1c (day 26 of administration) − (before start of administration): 0.493% and 0.0708% and 0.696% and 0.463% and 0.150% and −0.0552% and 0.719% and −0.0504%
  Hemoglobin A1c, Before start of administration: 5.50% and 6.36% and 6.46% and 6.60% and 7.12% and 6.80% and 6.55% and 5.83%
  Hemoglobin A1c, Day 26 of administration: 5.99% and 6.43% and 7.16% and 7.06% and 7.27% (2×) and 6.74% and 5.78%
[2]; 60 mg/kg, Week 0
  3-hydroxybutyric acid in plasma: 217 ± 28
  Plasma triglyceride concentration: 829 ± 97 mg/dL
[2]; 60 mg/kg, Week 1
  3-hydroxybutyric acid in plasma: 351 ± 72
  Plasma triglyceride concentration: 322 ± 30 mg/dL
[2]; 60 mg/kg, Week 4
  3-hydroxybutyric acid in plasma: 1260 ± 170
  Plasma triglyceride concentration: 641 ± 86 mg/dL
[2]; dose of 30, 45, or 60 mg/kg
  Sirius red-positive area rate vs vehicle administration group (in words): significantly lower than that of the vehicle administration group
[2]; mouse, in vivo
  amount of triglyceride in the liver vs vehicle administration group (in words): not significantly different from that in the vehicle administration group
  concentration of 3-hydroxybutyric acid in plasma vs vehicle administration group (in words): tended to be higher than that in the vehicle administration group
  hemoglobin A1c (in words): tended to suppress an increase in hemoglobin A1c
  plasma triglyceride concentration vs vehicle administration group (in words): not significantly different from that in the vehicle administration group
